Data from patent publication US20130089601A1, “METHOD FOR TREATING ATHEROSCLEROSIS” (KAOHSIUNG MEDICAL UNIVERSITY, priority 2009, published 2013).

Assays:
[1] = tested on: apoE−/− mice
From the text: Lentivector Expression System was purchased from System Biosciences. The microRNA expression vectors pCDH-CMV-MCS-EF1- GreenPuro vector (System Biosciences, SBI) contain a CMV-driven EGFP reporter. The full length sequence of microRNA-195 was amplified from genomic DNA by polymerase chain reaction (PCR). Primer pairs for microRNA expression vectors were microRNA-195 forward: 5′-[…]-3′ (SEQ ID NO: 3), and reverse: 5′-[…]-3′ (SEQ ID NO: 4). The PCR products were inserted to the microRNA expression vectors. The clones carrying microRNA-195 was named pCDH-miR-195. The pCDH vector was used as control.
The miRNA expression vectors (pCDH-miR-195 and pCDH mock vector) and Lentivirus Package plasmid mix (System Biosciences, SBI) were cotransfected into 293TN cells with PureFection™ Transfection Reagent (System Biosciences; Mountain View, Calif., USA), and Lenti-X Concentrator (Clontech, USA) was used for concentration. Infectious titers were determined by counting GFP positive-293T cells using a fluorescence microscope.
0.1 ml PBS with 10^7 IFU Lentivirus containing pCDH-miR-195 or a control vector was injected to the tail veil of the apoE−/− mice that were under a high fat diet. The injection was repeated once a week for a total of 12 weeks. Changes in body weight of the apoE−/− mice treated with Lentivirus containing pCDH-miR-195 (the microRNA-195 treatment group) and the apoE−/− mice treated with Lentivirus containing the control vector (the control group) were recorded every week and are shown in FIG. 7. When the experiment was completed, the mice of the microRNA-195 treatment group and the mice of the control group were sacrificed.
Biochemical indexes, such as blood urea nitrogen (BUN) and creatinine (CRE) for renal function, GOT (AST) and GPT (ALT) for liver function, fasting blood sugar (GLU), total cholesterol (T-CHO), high density lipoprotein (HDL), low density lipoprotein (LDL) and triglyceride (TG) of the blood of mice of the microRNA-195 treatment group and mice of the control group were determined and are shown in Table 2, respectively. Indexes for weight of various organs to body weight (organ weight/body weight) of mice of the microRNA-195 treatment group and the mice of the control group were determined and are shown in Table 3, respectively.

[2] = tested on: THP-1 cells adherent to HUVEC; experiment: In vitro adhesion assay of THP-1 cells to HUVEC co-cultured with transfected HASMCs; type: cell-based, human; details: in the presence of ox-LDL, vs NC-miR
From the text: MicroRNA-195 mimic, microRNA-195 inhibitor and negative control microRNA (NC-miR) were purchased from Ambion Inc. (TX, USA) with the sequences information shown as microRNA-195 mimic, 5′-[…]-3′ (SEQ ID NO: 5); microRNA-195 inhibitor, 5′-[…]-3′ (SEQ ID NO: 6); negative control sequence, 5′-AGUACUGCUUACGAUACGG-3′ (SEQ ID NO: 7). MicroRNA -195 inhibitor was used to specifically bind to and inhibit endogenous microRNA-195. The NC-miR is a random sequence pre-miR molecule that has been extensively tested in human cell lines and tissues and validated to produce no identifiable effects on known miRNA function. […]
At first, human aorta smooth muscle cells (HASMCs) were seeded on the inner side of Millicell® with the PET membrane (Millipore, Hanging 24-well cell culture inserts) at a density of 3×10^5 cells/cm^2 and transfected with microRNA-195 mimic mimic by using lipofectamine2000 for 24 hours. […] Then 4 ml of new culture medium was put in each dish and they were incubated overnight at 37° C. in 5% CO2 and 95% air humidified atmosphere to get ready for use in adhesion experiments of THP-1 cells.
To visualize the THP-1 cells adherent to the HUVEC-HASMC co-culture, the THP-1 cells were labeled with a fluorescent dye, calcein-AM. Fluorescence-labeled cells were resuspended in 4 ml of IMDM containing 10% FCS and prepared for use in adhesion experiments. […]

[3] = tested on: eNOS; experiment: Real-time qPCR of eNOS mRNA in HUVECs co-cultured with transfected HASMCs; type: cell-based, human; details: co-cultured with microRNA-195-transfected HASMCs
Method: HASMCs were transfected with negative control microRNA or microRNA-195 with or without the presence of oxLDL. MicroRNA-195-transfected HASMCs were co-cultured with HUVEC. Real-time qPCR analysis of mRNA levels for genes surrogating endothelial functions as well as atherosclerosis, such as vascular cell adhesion molecule-1 (VCAM-1), […] (TNF-a) and interleukin-6 (IL-6), and vasodilation gene, endothelial nitric oxide synthase (eNOS), were determined in HUVECs.

[4] = Lentivirus containing pCDH-miR-195, 12 weeks, high fat diet
[5] = Lentivirus containing pCDH-miR-195 vs control group, from Table 2
[6] = blood, Lentivirus containing pCDH-miR-195 10^7 IFU tail vein weekly, 12 weeks, high fat diet

**Q.** Which “Heart weight/body weight, average” value [1, 4] does the source give for “microRNA-195: Pre-miR miRNA, hsa-miR-195 (product ID PM10827), Ambion Inc., which mimics precursor for mature human miR-195; mimic 5′-UAGCAGCACAGAAAUAUUGGC-3′ (SEQ ID NO: 5) (chemistry not given here)” here?
**A.** Its value is 0.49%.

**Q.** What about the “Kidney weight/body weight, average” value [1, 4] of the same substance?
**A.** Its value is 1.20%.

**Q.** What about the “Liver weight/body weight, average” value [1, 4] of the same substance?
**A.** Its value is 3.35%.

**Q.** And the “Lung weight/body weight, average” value [1, 4]?
**A.** The value was 0.72%.

**Q.** What about the “Spleen weight/body weight, average” value [1, 4] of the same substance?
**A.** Its value is 0.32%.

**Q.** What about the HDL increase [1, 5] of the same substance?
**A.** The HDL increase was 77%.

**Q.** What about the triglyceride decrease [1, 5] of the same substance?
**A.** The triglyceride decrease was 26%.

**Q.** And the “blood sugar level versus placebo treated animals” value ([1]; Lentivirus containing pCDH-miR-195 vs control vector, high-fat diet)?
**A.** Its value is “lower”.

**Q.** And the “control of the increase of body weight” value ([1]; Lentivirus containing pCDH-miR-195 vs control vector, high-fat diet, 12 weeks)?
**A.** Its value is “better than the placebo”.

**Q.** What about the “BUN (blood urea nitrogen), average” value [1, 6] of the same substance?
**A.** Its value is 21.5.

**Q.** What about the “CRE (creatinine), average” value [1, 6] of the same substance?
**A.** The value was 0.7.

**Q.** And the “GLU (fasting blood sugar), average” value [1, 6]?
**A.** The value was 166.5.

**Q.** And the “GOT (AST), average” value [1, 6]?
**A.** Its value is 118.5.

**Q.** What about the “GPT (ALT), average” value [1, 6] of the same substance?
**A.** Its value is 28.5.

**Q.** What about the “HDL (high density lipoprotein), average” value [1, 6] of the same substance?
**A.** Its value is 11.5.

**Q.** And the “T-CHO (total cholesterol), average” value [1, 6]?
**A.** The value was 711.5.

**Q.** What about the “TG (triglyceride), average” value [1, 6] of the same substance?
**A.** Its value is 141.

**Q.** And the “THP-1 cells adhering to HUVEC” value [2]?
**A.** Its value is “fewer”.

**Q.** And the “eNOS mRNA level in HUVECs” value [3]?
**A.** The value was “increases”.
